Measured values from patent publication US20250223268A1, “4-Methylsulfonylbenzamide Compound, Preparation Method, Herbicidal Composition And Use” (Jiangsu Flag Chemical Industry Co., Ltd., priority 2022, published 2025).

Key:
Assay in all cases: Greenhouse herbicidal activity assay, post-emergence
Assay type in all cases: in vivo
Settings in all cases: Post-emergence test, rate 150 g a.i./hm^2, grade by fresh weight inhibition rate
Leptochloa chinensis = system: Leptochloa chinensis
How it was run: (§1)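 Weeds were sown in nutrient soil in 7 cm pots and grown in a growth chamber to the 3-6 leaf stage, then foliar-sprayed, air-dried and returned to the chamber. Fresh weight inhibition was scored 14-21 days later in bands from A (≥80% to 100%) to E (<20%).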

Eclipta prostrata = system: Eclipta prostrata
How it was run: as §1

Digitaria sanguinalis = system: Digitaria sanguinalis
How it was run: as §1

Echinochloa crusgalli = system: Echinochloa crusgalli
How it was run: as §1

Cyperus iria = system: Cyperus iria
How it was run: as §1

| SMILES | Control efficacy grade, Leptochloa chinensis (Leptochloa chinensis) | Control efficacy grade, Eclipta prostrata (Eclipta prostrata) | Control efficacy grade, Digitaria sanguinalis (Digitaria sanguinalis) | Control efficacy grade, Echinochloa crusgalli (Echinochloa crusgalli) | Control efficacy grade, Cyperus iria (Cyperus iria) | pest or weed control at 150 g/ha (Leptochloa chinensis; Dinebra chinensis, read-out: Control efficacy grade, Leptochloa chinensis) | pest or weed control at 150 g/ha (Eclipta prostrata; Eclipta prostrata, read-out: Control efficacy grade, Eclipta prostrata) | pest or weed control at 150 g/ha (Digitaria sanguinalis; Digitaria sanguinalis, read-out: Control efficacy grade, Digitaria sanguinalis) | pest or weed control at 150 g/ha (Echinochloa crusgalli; Echinochloa crus-galli, read-out: Control efficacy grade, Echinochloa crusgalli) | pest or weed control at 150 g/ha (Cyperus iria; Cyperus iria, read-out: Control efficacy grade, Cyperus iria) |
| --- | --- | --- | --- | --- | --- | --- | --- | --- | --- | --- |
| CC(C)[S+]([O-])c1c(S(C)(=O)=O)ccc(C(=O)Nc2nnco2)c1Cl (racemic) [Compound 3-273] | A (Fresh weight inhibition rate≥80% to 100%) | A (Fresh weight inhibition rate≥80% to 100%) | A (Fresh weight inhibition rate≥80% to 100%) | A (Fresh weight inhibition rate≥80% to 100%) | A (Fresh weight inhibition rate≥80% to 100%) | – | – | – | – | – |
| Cn1ncnc1NC(=O)c1ccc(S(C)(=O)=O)c([S+]([O-])C2CCCCC2)c1Cl (racemic) [Compound 2-48] | A (Fresh weight inhibition rate≥80% to 100%) | A (Fresh weight inhibition rate≥80% to 100%) | A (Fresh weight inhibition rate≥80% to 100%) | A (Fresh weight inhibition rate≥80% to 100%) | A (Fresh weight inhibition rate≥80% to 100%) | – | – | – | – | – |
| C=CC[S+]([O-])c1c(S(C)(=O)=O)ccc(C(=O)Nc2nnnn2C)c1Cl (racemic) [Compound 1-68] | A (Fresh weight inhibition rate≥80% to 100%) | A (Fresh weight inhibition rate≥80% to 100%) | A (Fresh weight inhibition rate≥80% to 100%) | A (Fresh weight inhibition rate≥80% to 100%) | A (Fresh weight inhibition rate≥80% to 100%) | – | – | – | – | – |
| CCC[S+]([O-])c1c(S(C)(=O)=O)ccc(C(=O)Nc2nnn[nH]2)c1Cl (racemic) [Compound 1-78] | A (Fresh weight inhibition rate≥80% to 100%) | A (Fresh weight inhibition rate≥80% to 100%) | A (Fresh weight inhibition rate≥80% to 100%) | A (Fresh weight inhibition rate≥80% to 100%) | A (Fresh weight inhibition rate≥80% to 100%) | – | – | – | – | – |
| Cc1nnc(NC(=O)c2ccc(S(C)(=O)=O)c(SCC(F)(F)F)c2Cl)o1 [Compound 3-97] | A (Fresh weight inhibition rate≥80% to 100%) | A (Fresh weight inhibition rate≥80% to 100%) | A (Fresh weight inhibition rate≥80% to 100%) | A (Fresh weight inhibition rate≥80% to 100%) | A (Fresh weight inhibition rate≥80% to 100%) | – | – | – | – | – |
| Cn1nnnc1NC(=O)c1ccc(S(C)(=O)=O)c([S+]([O-])CC2CC2)c1Cl (racemic) [Compound 1-28] | A (Fresh weight inhibition rate≥80% to 100%) | A (Fresh weight inhibition rate≥80% to 100%) | A (Fresh weight inhibition rate≥80% to 100%) | A (Fresh weight inhibition rate≥80% to 100%) | A (Fresh weight inhibition rate≥80% to 100%) | – | – | – | – | – |
| CCc1nnc(NC(=O)c2ccc(S(C)(=O)=O)c(SC3CC3)c2Cl)o1 [Compound 3-419] | A (Fresh weight inhibition rate≥80% to 100%) | A (Fresh weight inhibition rate≥80% to 100%) | A (Fresh weight inhibition rate≥80% to 100%) | A (Fresh weight inhibition rate≥80% to 100%) | A (Fresh weight inhibition rate≥80% to 100%) | – | – | – | – | – |
| CCCC[S+]([O-])c1c(S(C)(=O)=O)ccc(C(=O)Nc2nnnn2C)c1Cl (racemic) [Compound 1-12] | A (Fresh weight inhibition rate≥80% to 100%) | A (Fresh weight inhibition rate≥80% to 100%) | A (Fresh weight inhibition rate≥80% to 100%) | A (Fresh weight inhibition rate≥80% to 100%) | A (Fresh weight inhibition rate≥80% to 100%) | – | – | – | – | – |
| CCC(C)Sc1c(S(C)(=O)=O)ccc(C(=O)Nc2nnc(C)o2)c1Cl (racemic) [Compound 3-16] | A (Fresh weight inhibition rate≥80% to 100%) | A (Fresh weight inhibition rate≥80% to 100%) | A (Fresh weight inhibition rate≥80% to 100%) | A (Fresh weight inhibition rate≥80% to 100%) | A (Fresh weight inhibition rate≥80% to 100%) | – | – | – | – | – |
| CC(C)c1nnc(NC(=O)c2ccc(S(C)(=O)=O)c([S+]([O-])CC3CC3)c2Cl)o1 (racemic) [Compound 3-531] | A (Fresh weight inhibition rate≥80% to 100%) | A (Fresh weight inhibition rate≥80% to 100%) | A (Fresh weight inhibition rate≥80% to 100%) | A (Fresh weight inhibition rate≥80% to 100%) | A (Fresh weight inhibition rate≥80% to 100%) | – | – | – | – | – |
| CC(C)[S+]([O-])c1c(S(C)(=O)=O)ccc(C(=O)Nc2ncnn2C)c1Cl (racemic) [Compound 2-7, 2-chloro-3-(isopropylsulfinyl)-N-(1-methyl-1H-1,2,4-triazol-5-yl)-4-(methylsulfonyl)benzamide] | – | – | – | – | – | 80 to 100% | 80 to 100% | 80 to 100% | 80 to 100% | 80 to 100% |
| CC(C)Sc1c(S(C)(=O)=O)ccc(C(=O)Nc2nnnn2C)c1Cl [Compound 1-6] | A (Fresh weight inhibition rate≥80% to 100%) | A (Fresh weight inhibition rate≥80% to 100%) | A (Fresh weight inhibition rate≥80% to 100%) | A (Fresh weight inhibition rate≥80% to 100%) | A (Fresh weight inhibition rate≥80% to 100%) | – | – | – | – | – |
| C=CCSc1c(S(C)(=O)=O)ccc(C(=O)Nc2nnc(C)o2)c1Cl [Compound 3-112] | A (Fresh weight inhibition rate≥80% to 100%) | A (Fresh weight inhibition rate≥80% to 100%) | A (Fresh weight inhibition rate≥80% to 100%) | A (Fresh weight inhibition rate≥80% to 100%) | A (Fresh weight inhibition rate≥80% to 100%) | – | – | – | – | – |
| CS(=O)(=O)c1ccc(C(=O)Nc2nnco2)c(Cl)c1SCC(F)(F)F [Compound 3-323] | A (Fresh weight inhibition rate≥80% to 100%) | A (Fresh weight inhibition rate≥80% to 100%) | A (Fresh weight inhibition rate≥80% to 100%) | A (Fresh weight inhibition rate≥80% to 100%) | A (Fresh weight inhibition rate≥80% to 100%) | – | – | – | – | – |
| CS(=O)(=O)c1ccc(C(=O)Nc2nnco2)c(Cl)c1[S+]([O-])C1CCCC1 (racemic) [Compound 3-314] | A (Fresh weight inhibition rate≥80% to 100%) | A (Fresh weight inhibition rate≥80% to 100%) | A (Fresh weight inhibition rate≥80% to 100%) | A (Fresh weight inhibition rate≥80% to 100%) | A (Fresh weight inhibition rate≥80% to 100%) | – | – | – | – | – |
| C=C(C)C[S+]([O-])c1c(S(C)(=O)=O)ccc(C(=O)Nc2nnc(C)o2)c1Cl (racemic) [Compound 3-143] | A (Fresh weight inhibition rate≥80% to 100%) | A (Fresh weight inhibition rate≥80% to 100%) | A (Fresh weight inhibition rate≥80% to 100%) | A (Fresh weight inhibition rate≥80% to 100%) | A (Fresh weight inhibition rate≥80% to 100%) | – | – | – | – | – |
| C=CC[S+]([O-])c1c(S(C)(=O)=O)ccc(C(=O)Nc2nnc(C3CC3)o2)c1Cl (racemic) [Compound 3-687] | A (Fresh weight inhibition rate≥80% to 100%) | A (Fresh weight inhibition rate≥80% to 100%) | A (Fresh weight inhibition rate≥80% to 100%) | B (Fresh weight inhibition rate≥260% to <80%) | A (Fresh weight inhibition rate≥80% to 100%) | – | – | – | – | – |
| CS(=O)(=O)c1ccc(C(=O)Nc2nnco2)c(Cl)c1[S+]([O-])CC1CC1 (racemic) [Compound 3-299] | A (Fresh weight inhibition rate≥80% to 100%) | A (Fresh weight inhibition rate≥80% to 100%) | A (Fresh weight inhibition rate≥80% to 100%) | A (Fresh weight inhibition rate≥80% to 100%) | A (Fresh weight inhibition rate≥80% to 100%) | – | – | – | – | – |
